Source: PMC9749938, “Alkyltriphenylphosphonium turns naphthoquinoneimidazoles into potent membrane depolarizers against mycobacteria” (RSC Medicinal Chemistry, 2022)

Each compound was assayed on inverted membrane vesicles of M. smegmatis mc^24517 overexpressing NDH2 (TB-ndh) (assay: NADH oxidation in inverted membrane vesicles, TB-ndh). Conditions: read-out: EC50 of activation of NADH oxidation, TB-ndh IMV.
Format: biochemical
For CCCCn1c2c([n+](C3CCC4(CCCCC4)CC3)c1C)C(=O)c1ccccc1C2=O.[Br-] [Compound 44, reference compound], the EC50 was 3.74 µM. Compound CCCCCCCCn1c2c([n+](CCCC)c1C)C(=O)c1ccccc1C2=O.[Br-] [Compound 45, reference compound] has an EC50 of 0.2 µM. Cc1nc2c(n1CCCCCCCCCCC[P+](c1ccccc1)(c1ccccc1)c1ccccc1)C(=O)c1ccccc1C2=O.[I-] [Compound 7] gave an EC50 of 1.4 µM.
